Test results reported in patent US10376476B2, “Panicein compounds, compositions and uses thereof” (CENTRE NATIONAL DE LA RECHERCHE SCIENTIFIQUE, priority 2014, dated 2019).

How the values were obtained:
Type in all cases: cell-based
[1] = molecular target: T1, human Patched (hPtc) expressed in yeasts (Homo sapiens, UniProt Q13635); test: Resistance of hPtc-expressing yeasts to other chemotherapeutic agents (yeast growth, absorbance 600 nm); conditions: 10 μM paniceins; for inhibition of the resistance of yeasts to vemurafenib: 10 μM vemurafenib; for inhibition of the resistance of yeasts to cisplatine: 50 μM cisplatine; for inhibition of the resistance of yeasts to dacarbazine: 2 mM dacarbazine
T1 construct: MAP; expressed in transfected cells; host or cells: Saccharomyces cerevisiae K699
T1 sequence (Q13635 1-1447): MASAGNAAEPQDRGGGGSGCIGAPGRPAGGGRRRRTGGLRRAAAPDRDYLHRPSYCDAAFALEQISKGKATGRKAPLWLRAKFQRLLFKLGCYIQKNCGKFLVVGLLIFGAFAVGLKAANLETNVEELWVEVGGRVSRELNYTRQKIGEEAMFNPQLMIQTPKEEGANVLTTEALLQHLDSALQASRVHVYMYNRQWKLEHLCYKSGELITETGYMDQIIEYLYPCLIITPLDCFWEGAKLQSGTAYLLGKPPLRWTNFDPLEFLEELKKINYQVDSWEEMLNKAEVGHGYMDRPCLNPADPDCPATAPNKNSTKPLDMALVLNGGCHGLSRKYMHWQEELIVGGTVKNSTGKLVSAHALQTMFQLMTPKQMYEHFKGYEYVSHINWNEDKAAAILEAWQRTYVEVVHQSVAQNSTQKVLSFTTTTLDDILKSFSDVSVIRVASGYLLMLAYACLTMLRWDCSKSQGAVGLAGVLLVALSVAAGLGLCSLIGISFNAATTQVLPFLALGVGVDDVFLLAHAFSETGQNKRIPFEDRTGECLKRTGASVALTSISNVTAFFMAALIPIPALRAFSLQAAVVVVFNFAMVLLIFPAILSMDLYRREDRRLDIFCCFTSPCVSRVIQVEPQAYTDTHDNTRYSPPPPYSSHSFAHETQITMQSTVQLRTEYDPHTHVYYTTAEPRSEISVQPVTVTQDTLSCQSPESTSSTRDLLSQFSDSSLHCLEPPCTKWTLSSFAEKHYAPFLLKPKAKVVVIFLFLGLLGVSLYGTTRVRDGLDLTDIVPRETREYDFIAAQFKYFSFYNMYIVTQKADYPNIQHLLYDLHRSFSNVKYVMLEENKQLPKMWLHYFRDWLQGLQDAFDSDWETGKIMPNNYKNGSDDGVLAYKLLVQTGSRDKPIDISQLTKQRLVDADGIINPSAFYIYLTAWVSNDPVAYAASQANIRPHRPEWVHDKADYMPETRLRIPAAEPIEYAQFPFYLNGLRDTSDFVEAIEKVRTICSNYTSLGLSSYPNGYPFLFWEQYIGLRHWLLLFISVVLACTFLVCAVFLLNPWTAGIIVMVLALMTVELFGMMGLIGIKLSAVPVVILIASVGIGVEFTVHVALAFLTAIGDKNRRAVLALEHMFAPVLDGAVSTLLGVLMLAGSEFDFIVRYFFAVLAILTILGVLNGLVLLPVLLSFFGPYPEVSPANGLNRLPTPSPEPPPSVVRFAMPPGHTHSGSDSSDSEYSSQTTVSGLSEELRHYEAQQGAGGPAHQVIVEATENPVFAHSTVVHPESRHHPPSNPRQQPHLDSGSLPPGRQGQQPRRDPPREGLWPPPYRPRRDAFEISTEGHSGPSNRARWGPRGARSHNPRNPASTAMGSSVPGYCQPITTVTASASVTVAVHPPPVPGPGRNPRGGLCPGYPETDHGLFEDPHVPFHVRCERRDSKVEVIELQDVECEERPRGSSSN
Protocol: Paniceins were added at a final concentration of 10 μM to the yeast growth medium containing 2 mM of dacarbazine (A), 50 μM of cisplatine (B), or 10 μM of vemurafenib (C). The growth of hPtc-expressing-yeasts was measured by absorbance at 600 nm.
The expression of human Patched in yeasts confers to these yeasts the ability to grow in presence of other chemotherapeutic agents currently used to treat melanoma such as dacarbazine or cisplatine.

A375 cells = test: Screening test 2: doxorubicin cytotoxicity, neutral red cell viability; conditions: 24 hours; for increase of cell mortality induced by dxr (dxr cytotoxicity enhancement): A375, paniceins 10 μM, dxr 1.5 μM
Protocol: (§1) Cells were grown in 96 well plates in complete DMEM medium to achieve 60% to 70% confluence. Medium was then removed and replaced with 100 μL/well of complete DMEM medium containing paniceins at 10 μM (or at increasing concentrations for EC50 measurement) or DMSO as control. After 2 hours, 100 μL of complete DMEM medium containing doxorubicin was added in half wells to obtain the final concentration of 2 μM for MDA-MB-435 and MeWo, and 1.5 μM for A375. The cell viability was measured after 24 hours. Effect of compounds P2, P3, P4 and P5 on cell viability, and dose-response for compound P5 are shown for MDA-MB-435 (A), MeWo (B) and A375 (C). D. Enhancement of dxr cytotoxicity by paniceins is represented. The means (+/−sem) of at least three independent experiments are reported.
(§2) Melanoma cells MDA-MB-435, Mewo and A375 were seeded on 96-well plates and grown 48 hours in complete DMEM medium to achieve 60% to 70% confluence. Medium was then removed and replaced with 100 μL/well of complete DMEM medium containing the compounds of interest at defined concentration or DMSO as control. After 2 hours, 100 µL of complete DMEM medium containing doxorubicin was added in half wells to obtain 2 μM doxorubicin. Plates were incubated at 37° C. in a 5% CO2/95% air water-saturated atmosphere. After 24 hours, microplates were incubated 3 hours at 37° C. with 100 μL/wells neutral red (NR) solution (50 μg/mL in DMEM). After a rapid wash with PBS at 4° C., microplates were gently tapped several times on absorbent paper. Cells were solubilized with 100 μL of a solution containing 1% acetic acid, 49% H2O, 50% ethanol by vortexing 3 minutes at 700 rpm and the absorbance at 600 nm was measured. EC50 were calculated using Regressi software.

MDA-MB-435 cells = test: as above; conditions: 24 hours; for increase of cell mortality induced by dxr (dxr cytotoxicity enhancement): MDA-MB-435, paniceins 10 μM, dxr 2 μM
Protocol: as §1, §2

MeWo cells = test: as above; conditions: dxr 2 μM, 24 hours; for increase of cell mortality induced by dxr (dxr cytotoxicity enhancement): paniceins 10 μM
Protocol: as §1, §2

| SMILES | inhibition of the resistance of yeasts to vemurafenib [1] | inhibition of the resistance of yeasts to cisplatine [1] | inhibition of the resistance of yeasts to dacarbazine [1] | increase of cell mortality induced by dxr (dxr cytotoxicity enhancement) (A375 cells) | increase of cell mortality induced by dxr (dxr cytotoxicity enhancement) (MDA-MB-435 cells) | increase of cell mortality induced by dxr (dxr cytotoxicity enhancement) (MeWo cells) | EC50 (A375 cells; Homo sapiens, A-375, A375, dxr 1.5 μM, read-out: concentration inducing 50% of dxr cytotoxicity enhancement (EC50)) [µM] | EC50 (MDA-MB-435 cells; Homo sapiens, MDA-MB-435, dxr 2 μM, read-out: concentration inducing 50% of dxr cytotoxicity enhancement (EC50)) [µM] | EC50 (MeWo cells; Homo sapiens, read-out: concentration inducing 50% of dxr cytotoxicity enhancement (EC50)) [µM] |
| --- | --- | --- | --- | --- | --- | --- | --- | --- | --- |
| C/C(=C\Cc1cc(O)ccc1O)CCc1c(C)cc(O)c(C=O)c1C [P3, Panicein B3] | inhibits the resistance | inhibits the resistance | inhibits the resistance | no effect | about 2 times | about 2 times |  |  |  |
| Cc1cc(O)c(C=O)c(C)c1CCC1(C)C=Cc2cc(O)ccc2O1 (stereo not shown) [P4, Panicein B2] |  |  |  | no effect | about 2 times | about 2 times |  |  |  |
| COc1cc(C)c(CC/C(C)=C/Cc2cc(O)ccc2O)c(C)c1C [P5, Panicein A hydroquinone] | inhibits the resistance | inhibits the resistance | inhibits the resistance | about 2 times |  |  | 22.5 | 9.3 | 5 |
| C/C(=C\Cc1cc(O)ccc1O)CCc1c(C)c(O)c(O)c(C=O)c1C [P2, Panicein C] | inhibits the resistance | inhibits the resistance | inhibits the resistance | no effect | about 2 times | about 2 times |  |  |  |
